Experimental data: patent US20220127335A1, “TETRAMERIC PROTEIN SCAFFOLDS AS NANO-CARRIERS OF THERAPEUTIC PEPTIDES FOR TREATING CANCER AND OTHER DISEASES” (UNIVERSITY OF MARYLAND, BALTIMORE, priority 2019, published 2022)
Read-outs that look alike come from different tables or passages of the source.

Assays:
[1] = tested on: p53, p21, PUMA, NOXA in HCT116 p53^+/+ cells; assay: Western blotting of p53, p21, PUMA, NOXA; format: cell-based; settings: 12.5 μM, 48 h
Protocol: The primary antibodies were from Santa Cruz Biotechnology (p53), Calbiochem (p21, PUMA and NOXA) and Sigma-Aldrich (β-actin), and secondary antibodies conjugated with horseradish peroxidase from Calbiochem.
T-test was performed for statistical analysis, * standing for p<0.05, *** for p<0.001. The data are the means±SD of three independent Western blotting assays.

[2] = end of three-week treatment
[3] = Complete blood cell analysis after 21-day treatment; settings: end of three-week treatment
Protocol: (§1) Statistical analysis was performed using T-test, NS standing for no significant difference.

[4] = tested on: HCT116 p53^+/+ xenograft tumors; assay: Tumor growth inhibition in nude mouse xenograft model; format: in vivo, BALB/c nude mice; settings: 5 mg/Kg subcutaneous every other day, 3 weeks
HCT 116 p53^+/+ cells = assay: Cellular uptake by flow cytometry and confocal microscopy; format: cell-based
Protocol: HCT 116 p53^+/+ cells were seeded in a 12-well plate at a density of 30,000 cells/well, cultured for 24 h, and treated with peptide or protein at 10 μM for 4 h before flow cytometric analysis.
Hoechst 33342 blue dye was used for nuclei staining.
Peptide/protein internalization and cytosolic release were also examined using both confocal microscopy and flow cytometry.
Cationic cell penetrating peptides as a carrier are known to promote cellular uptake of cargos primarily through the […], which is inhibited by heparin but not by amiloride. To better understand the mechanism of cellular uptake of ^PMIBcr/Abl-R6, confocal microscopic analysis was performed on cells treated with heparin or amiloride.

HCT116 p53^+/+ cells [5] = assay: Cell viability (CCK-8), HCT116 p53^+/+; format: cell-based; settings: 48 h after treatment, 1.56 μM to 50 μM
Protocol: (§2) Following a 2-h incubation with CCK-8 reagents, absorbance values at 450 nm were measured on a microplate reader, and percent cell viability was calculated as (Atreatment−Ablank)/(Acontrol−Ablank)×100%. The data are the means of three independent assays.
Three independent assays were performed.

[6] = tested on: HCT116 p53^+/+ xenograft tumors; assay: Histopathology of xenograft tumors (H&E and TUNEL staining); format: in vivo, BALB/c nude mice; settings: tumors after three-week treatment, 5 mg/Kg
Source text: Representative tumors from each treatment group were fixed with formaldehyde, dehydrated and sliced into 5 μm-thick sections, and subjected to H&E staining according to standard protocols (scale bar: 50 μm).
FIG. 7F is the terminal deoxynucleotidyl transferase dUTP nick end labeling (TUNEL) assay to stain fragmented DNA in apoptotic cells (scale bar: 50 μm).

[7] = target: the molecule itself; assay: self-association into tetramer; SEC, DLS, fluorescence polarization, SAXS
HCT116 p53^+/+ cells [8] = assay: Apoptosis by flow cytometry (annexin V / propidium iodide); format: cell-based; settings: 12.5 μM, 48 h
Protocol: Apoptosis was detected using a standard apoptotic kit from Biolegend, including APC labeled anti-annexin V antibody and a propidium iodide solution.
Three independent FACS assays were performed, and data are shown as the means±SD (n=3). p values were calculated by t-test (***, p<0.001).

[9] = target: T1, MDM2 (p53-binding domain) (UniProt Q00987 25-109, limits assumed); assay: ITC, MicroCal ITC 200, 25° C., 20 mM Tris/HCl pH 7.4
T1 construct: The ITC legends say only 'MDM2'

HCT116 p53^−/− cells = assay: Cell viability (CCK-8), HCT116 p53^−/−; settings: 48 h after treatment
Protocol: as §2

[10] = mouse, in vivo
Protocol: as §1

T1 sequence (Q00987 25-109 limits assumed): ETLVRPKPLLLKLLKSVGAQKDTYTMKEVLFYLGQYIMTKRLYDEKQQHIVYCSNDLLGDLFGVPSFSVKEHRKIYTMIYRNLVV

| Molecule | expression of p21, PUMA and NOXA (Western blotting) [1] | p53 level (Western blotting) [1] | toxicity to liver and kidney tissues (H&E) [2] | effect on tumor growth [4] | cell viability / growth inhibition (HCT116 p53^+/+ cells [5]) | necrotic and apoptotic tumor cells (H&E and TUNEL) [6] | blood cell counts (WBC, LYM, MID, GRN, RBC, PLT) versus mock-treated control [10] | further results |
| --- | --- | --- | --- | --- | --- | --- | --- | --- |
| COc1ccc(C2=N[C@@H](c3ccc(Cl)cc3)[C@@H](c3ccc(Cl)cc3)N2C(=O)N2CCNC(=O)C2)c(OC(C)C)c1 [Nutlin-3, reference compound] | upregulation | significantly stabilized p53 | no overt toxicity |  |  |  |  | blood cell counts (WBC, LYM, MID, GRN, RBC, PLT) versus mock-treated control [3]: no statistically significant difference |
| ^PMIBcr/Abl-R6: Bcr/Abl tetramerization domain with PMI grafted in place of residues 5-16, C-terminally extended by Arg-repeating hexapeptide (R6); 78 residues, tetramer | upregulation | significantly stabilized p53 |  | significantly inhibited it | dose-dependent growth inhibition | massive necrotic and apoptotic tumor cells |  | cellular uptake (flow cytometry) (HCT 116 p53^+/+ cells; BDP TR-labeled, 10 μM, 4 h): much more efficiently; cytosolic distribution (confocal microscopy) (HCT 116 p53^+/+ cells; BDP TR-labeled, 10 μM, 4 h): cytosolic distribution; effect of amiloride on internalization (HCT 116 p53^+/+ cells; amiloride 3 mM, 12 h before addition): little effect; effect of heparin on internalization (HCT 116 p53^+/+ cells; heparin sodium 5 mM, 12 h before addition): almost completely blocked it |
| ^PMIBcr/Abl-R6 (designed binder, Bcr/Abl tetramerization domain with PMI grafted in place of residues 5-16 and a C-terminal Arg hexapeptide (R6); 78 residues, chemically synthesized by native chemical ligation; Exists as a tetramer in aqueous buffer) MVDPTSFAEYWALLSPDSEPPRMELRSVGDIEQELERAKASIRRLEQEVNQERFRMIYLQTLLAKEKKSYDRRRRRRR |  |  |  |  |  |  |  | binding result [7]: binds |
| Bcr/Abl-R6 (other, Negative control scaffold without the PMI graft: Bcr/Abl tetramerization domain with C-terminal R6; Chemically synthesized; tetramer in aqueous buffer) MVDPVGFAEAWKAQFPDSEPPRMELRSVGDIEQELERAKASIRRLEQEVNQERFRMIYLQTLLAKEKKSYDRRRRRRR |  |  | no overt toxicity | no effect on tumor growth | neither PMI nor Bcr/Abl-R6 had any effect on the viability | lack of activity | no statistically significant difference | apoptosis (FACS) (HCT116 p53^+/+ cells [8]): largely unaffected; binding result [9]: no binding; cell viability (HCT116 p53^−/− cells): neither PMI nor Bcr/Abl-R6 had any effect on the viability |
| ^PMIBcr/Abl: Bcr/Abl tetramerization domain with PMI grafted in place of residues 5-16, without R6; negative control (protein) MVDPTSFAEYWALLSPDSEPPRMELRSVGDIEQELERAKASIRRLEQEVNQERFRMIYLQTLLAKEKKSYDR |  |  | no overt toxicity | marginally active |  | partial activity | no statistically significant difference |  |
